{"source": "the OPERA property sets (Mansouri et al. 2018)", "note": "Peptide text beside a SMILES is read from it.", "data": [{"values": [{"compound": "NC(=O)Nc1cccc(F)c1", "logP": 1.29}, {"compound": "Nc1ccc(Cl)c([N+](=O)[O-])c1", "logP": 2.06}, {"compound": "CN(C)CC(CN1c2ccccc2Sc2ccccc21)N(C)C", "note": "(configuration not stated)", "logP": 4.76}, {"compound": "COc1cccc(NC(=O)N(CCCl)N=O)c1", "logP": 2.66}, {"compound": "ON=Cc1ccccc1", "logP": 1.85}, {"compound": "C[C@]12CCC(=O)C=C1C=C[C@@H]1[C@@H]2CC[C@@]2(C)[C@H]1CC[C@@]21CCC(=O)O1", "logP": 2.68}, {"compound": "CCCCOCc1ccccc1NC(=O)OCCN1CCCCC1", "logP": 3.94}, {"compound": "CC(=O)c1ccc(NC=O)cc1", "logP": 0.94}, {"compound": "CC1N=C(c2ccccc2)c2cc(Cl)ccc2NC1=O", "note": "(configuration not stated)", "logP": 3.33}, {"compound": "Cc1cccc(C#N)n1", "logP": 0.84}, {"compound": "CC(C)(C)c1cc(O)ccc1[N+](=O)[O-]", "logP": 3.65}, {"compound": "COc1cccc(C(=O)O)c1O", "logP": 1.94}, {"compound": "CC(=O)c1ccc(N2CCCCC2)cc1", "logP": 3.13}, {"compound": "Clc1cc(Cl)c(Cl)c(-c2c(Cl)c(Cl)c(Cl)c(Cl)c2Cl)c1Cl", "logP": 8.16}, {"compound": "COC(=O)c1ccc(S(I)=C(N(C)C)N(C)C)cc1", "note": "(configuration not stated)", "logP": -0.74}, {"compound": "COc1ccco1", "logP": 1.44}, {"compound": "O=C([O-])c1ccccc1O.[Na+]", "logP": -1.43}, {"compound": "O=C(C=CC(=O)c1ccccc1)c1ccccc1", "logP": 3.16}, {"compound": "COC1=C(OC)C(=O)C(C)=C(C)C1=O", "logP": 1.26}, {"compound": "CNC(=O)Oc1cc(C)cc(C)c1", "logP": 2.23}, {"compound": "FC(F)(F)c1ccccc1", "logP": 3.01}, {"compound": "O=[N+]([O-])c1cc[n+]([O-])c2c(F)cccc12", "logP": 1}, {"compound": "NC(=O)c1cccc(F)c1", "logP": 0.91}, {"compound": "CC(C)CC(N)C(=O)OCn1ncc2c(=O)[nH]cnc21", "note": "(configuration not stated)", "logP": 0.19}, {"compound": "CCCCC(=O)O[C@]1(C(=O)CO)CC[C@H]2[C@@H]3CCC4=CC(=O)CC[C@]4(C)[C@H]3[C@@H](O)C[C@@]21C", "logP": 3.79}, {"compound": "CCSC(=O)N1CCCCCC1", "logP": 3.21}, {"compound": "CCC(=O)C(CC(C)N(C)C)(c1ccccc1)c1ccccc1", "note": "(configuration not stated)", "logP": 3.93}, {"compound": "CC1(C)Oc2c(O)cccc2C1=O", "logP": 1.87}, {"compound": "CC1C(c2ccccc2)OCCN1N=O", "note": "(configuration not stated)", "logP": 2.09}, {"compound": "OCCN1CCN(CCCC2c3ccc(F)cc3Sc3ccc(C(F)(F)F)cc32)CC1", "note": "(configuration not stated)", "logP": 4.47}, {"compound": "N#Cc1ccc([N+](=O)[O-])cc1", "logP": 1.19}, {"compound": "CCCCCCCCOC(N)=O", "logP": 2.84}, {"compound": "COC(=O)NC(=S)Nc1ccccc1NC(=S)NC(=O)OC", "logP": 1.4}, {"compound": "O=C(O)CCCCCc1ccccc1", "logP": 3.27}, {"compound": "CNC(=O)Oc1ccccc1C#N", "logP": 0.86}, {"compound": "CN1C(=O)CN=C(c2ccc(Cl)cc2)c2cc(F)ccc21", "logP": 3.1}, {"compound": "Cc1ccc2[nH]c(=O)[nH]c(=O)c2c1", "logP": 0.55}, {"compound": "CCOC(=O)C(C(=O)OCC)=C(C(=O)OCC)C(=O)OCC", "logP": 2.63}, {"compound": "ON=CCCc1ccccc1", "logP": 1.56}, {"compound": "OCc1cccc(C(F)(F)F)c1", "logP": 2.24}, {"compound": "CC(=O)N[C@@H](CO)C(=O)N[C@@H](Cc1ccccc1)C(N)=O", "logP": -0.79}, {"compound": "CCCNCC(C)C", "logP": 2.07}, {"compound": "c1cocn1", "logP": 0.12}, {"compound": "COc1cc(C(C)(C)C)c(OC)cc1CC(C)N", "note": "(configuration not stated)", "logP": 3.91}, {"compound": "CCS(=O)(=O)CC", "logP": -0.59}, {"compound": "O=C1c2ccccc2C(=O)N1SC(Cl)(Cl)Cl", "logP": 2.85}, {"compound": "O=CNc1ccc2[nH]ccc2c1", "logP": 1.07}, {"compound": "CC(=O)CC(C)=O", "logP": 0.4}, {"compound": "c1ccc(N2CCCCC2)cc1", "logP": 2.98}, {"compound": "COc1cc(S(=O)(=O)CCN(C)Cc2ccccc2)cc(OC)c1OC", "logP": 2.18}, {"compound": "CCNC(=O)Nc1ccccc1", "logP": 1.64}, {"compound": "O=Ic1ccccc1", "logP": -1.61}, {"compound": "CN(C)CC/C=C1\\c2ccccc2CSc2ccccc21", "logP": 4.49}, {"compound": "O=C(O)c1ccncc1", "logP": 0.32}, {"compound": "Oc1c(Br)cc(Br)c(O)c1Br", "logP": 4.37}, {"compound": "CS(=O)(=O)Nc1ccc(Cl)cc1", "logP": 1.85}, {"compound": "CC(=O)Nc1ccccc1C", "logP": 0.85}, {"compound": "COC1C(O)C(C)OC(OC2CCC3(C=O)C(CCC4C3CCC3(C)C(C5=CC(=O)OC5)CCC43O)C2)C1O", "note": "(configuration not stated)", "logP": 1.05}, {"compound": "CC12C=CC(=O)C=C1CCC1C2C(O)CC2(C)C1CCC2(O)C(=O)COC1OC(CO)C(O)C(O)C1O", "note": "(configuration not stated)", "logP": 0.27}, {"compound": "Cc1cc(C)c(C)cc1C", "logP": 4}, {"compound": "Oc1cc(Cl)c(Cl)c(Cl)c1Cl", "logP": 4.21}, {"compound": "N#Cc1ccccc1", "logP": 1.56}, {"compound": "C1CNCCN1", "logP": -1.5}, {"compound": "Clc1ccccc1-c1ccccc1", "logP": 4.53}, {"compound": "O=C1NC(=O)C(c2ccccc2)(c2ccccc2)N1", "logP": 2.47}, {"compound": "NCCNC(=O)c1ccccc1", "logP": 0.06}, {"compound": "CC(=O)Nc1ccccc1[N+](=O)[O-]", "logP": 1}, {"compound": "COc1ccccc1C(=O)NCCN(C)C", "logP": 1.14}, {"compound": "C1COCCOCCOCCO1", "logP": -0.04}, {"compound": "C=CCOc1ccccc1C(=C)n1ccnc1", "logP": 2.79}, {"compound": "CC(=O)c1ccccc1O", "logP": 1.92}, {"compound": "CC(=O)NC(Cc1c[nH]c2ccccc12)C(=O)NCC(=O)NC(Cc1ccccc1)C(N)=O", "note": "(stereo not drawn) (Ac-Trp-Gly-Phe-NH2; configuration not given here)", "logP": 0.99}, {"compound": "CNC(=O)Oc1ccc(C)cc1", "logP": 1.66}, {"compound": "C#CCC(O)(c1ccc(F)cc1)c1cccnc1", "note": "(configuration not stated)", "logP": 1.78}, {"compound": "Cn1c(C=[N+](C)[O-])cnc1[N+](=O)[O-]", "logP": 0.04}, {"compound": "CN(C)C(=O)OCc1ccc(C#N)cc1", "logP": 1.67}, {"compound": "CN1CCN(CC(=O)N/N=C/c2ccc([N+](=O)[O-])o2)CC1", "logP": -0.1}, {"compound": "COc1cc(C(O)CN)ccc1O", "note": "(configuration not stated)", "logP": -1.05}, {"compound": "S=C1CCCCCN1", "logP": 0.75}, {"compound": "CC(=O)c1cccc(O)c1", "logP": 1.39}, {"compound": "CC(C)C(C#N)c1ccccc1", "note": "(configuration not stated)", "logP": 2.33}, {"compound": "CCCCCCCOc1ccccc1NC(=O)OCCN1CCCCC1", "logP": 5.62}]}]}
